Active and inactive are the calls of the source.
Key:
Coagulation factor XII = biological target: T1, Coagulation factor XII (Homo sapiens, UniProt P00748); assay type: functional;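 further: activated factor XIIa alpha cleaving a fluorogenic AMC peptide substrate; inhibitor potency from loss of enzyme activity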
T1 sequence (P00748 whole entry): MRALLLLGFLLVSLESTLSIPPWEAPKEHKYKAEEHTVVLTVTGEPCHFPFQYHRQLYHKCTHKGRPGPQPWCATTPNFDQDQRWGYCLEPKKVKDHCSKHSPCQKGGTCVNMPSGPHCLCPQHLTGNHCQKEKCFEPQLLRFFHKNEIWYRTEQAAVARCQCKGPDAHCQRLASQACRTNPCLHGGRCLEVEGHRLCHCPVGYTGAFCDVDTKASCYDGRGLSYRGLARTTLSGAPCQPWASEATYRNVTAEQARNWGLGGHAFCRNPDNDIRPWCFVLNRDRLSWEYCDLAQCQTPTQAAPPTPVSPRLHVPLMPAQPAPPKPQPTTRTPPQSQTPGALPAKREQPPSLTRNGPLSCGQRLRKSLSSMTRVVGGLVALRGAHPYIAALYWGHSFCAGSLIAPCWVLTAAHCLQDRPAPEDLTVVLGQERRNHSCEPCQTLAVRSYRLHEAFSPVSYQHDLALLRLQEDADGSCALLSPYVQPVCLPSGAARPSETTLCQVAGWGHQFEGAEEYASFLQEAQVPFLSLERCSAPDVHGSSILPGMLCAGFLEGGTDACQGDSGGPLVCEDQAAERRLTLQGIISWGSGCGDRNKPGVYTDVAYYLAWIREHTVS

[1] = NIH-3T3 fibroblast cytotoxicity, dose response, cytotoxicity control, cell-based, fluorescence, Alamar Blue, secondary assay (AID 2327); assay type: functional;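 further: NIH-3T3 mouse fibroblasts cultured with fluconazole at 8 µg/mL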
[2] = test system: Streptococcus sp. 'group A'; experiment: growth inhibition of control SK(-) GAS strain, dose response, counter-screen for streptokinase expression inhibitor project, luminescence, kanamycin, BacTiterGlo, confirmation (AID 1900); assay type: functional, organism-based
[3] = C. albicans growth with fluconazole, confirmation, fluorescence, retest (AID 2467); assay type: functional, cell-based
Streptococcus = experiment: Group A Streptococcus viability loss, dose response, counter-screen for streptokinase expression inhibitor project, luminescence, BacTiterGlo (AID 1915); assay type: functional, organism-based;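 further: potency for reduction of bacterial viability or growth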
[4] = THP-1 cell cytotoxicity, dose response, cytotoxicity control for non-replicating M. tuberculosis project (AID 489025); assay type: functional
[5] = Vero E6 cell cytotoxicity, dose response, cytotoxicity control for non-replicating M. tuberculosis project, secondary assay (AID 492998); assay type: functional, VeroE6; details: Vero C1008
cells [6] = assay type: functional
[7] = biological target: G-protein coupled receptor 35 (Homo sapiens, UniProt Q9HC97); experiment: GPR35 antagonists blocking zaprinast-driven arrestin recruitment, primary screen, imaging, U2OS, beta-arrestin-GFP, zaprinast agonist (AID 2058); assay type: functional;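 further: antagonist potency meaning inhibition of agonist-induced arrestin redistribution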
[8] = biological target: T2, RNA-binding protein pos-1 (Caenorhabditis elegans, UniProt G5EF15); experiment: inhibitors of POS-1/mex-3 RNA binding, dose response, biochemical, fluorescence polarization (AID 1964);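 further: purified POS-1 fused to maltose binding protein made in E. coli; potency of compounds blocking POS-1 binding to fluorescent RNA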
T2 sequence (G5EF15 whole entry): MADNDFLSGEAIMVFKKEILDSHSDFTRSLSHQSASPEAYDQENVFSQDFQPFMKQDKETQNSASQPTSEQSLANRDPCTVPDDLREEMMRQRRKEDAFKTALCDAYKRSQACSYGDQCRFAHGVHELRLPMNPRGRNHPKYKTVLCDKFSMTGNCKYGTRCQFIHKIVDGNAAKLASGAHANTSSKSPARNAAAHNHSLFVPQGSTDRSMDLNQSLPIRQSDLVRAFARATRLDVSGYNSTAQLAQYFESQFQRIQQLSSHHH

[9] = biological target: T3, Zinc finger protein mex-5 (Caenorhabditis elegans, UniProt Q9XUB2); experiment: MEX-5/TCR-2 RNA interaction inhibitors, dose response, biochemical, C. elegans, fluorescence polarization (AID 1960)
T3 sequence (Q9XUB2 whole entry): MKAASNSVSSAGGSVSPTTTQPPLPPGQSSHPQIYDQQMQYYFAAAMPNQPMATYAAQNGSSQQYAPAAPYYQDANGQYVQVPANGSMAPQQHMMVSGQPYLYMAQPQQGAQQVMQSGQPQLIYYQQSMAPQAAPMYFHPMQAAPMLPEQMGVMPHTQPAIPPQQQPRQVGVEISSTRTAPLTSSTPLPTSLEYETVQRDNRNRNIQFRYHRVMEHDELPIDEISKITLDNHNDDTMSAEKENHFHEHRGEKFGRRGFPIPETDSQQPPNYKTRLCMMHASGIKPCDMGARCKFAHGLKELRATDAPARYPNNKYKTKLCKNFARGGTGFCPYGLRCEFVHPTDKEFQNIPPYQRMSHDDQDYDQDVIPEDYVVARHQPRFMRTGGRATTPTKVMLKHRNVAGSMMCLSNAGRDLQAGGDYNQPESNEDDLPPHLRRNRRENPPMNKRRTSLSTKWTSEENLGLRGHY

Beta-lactamase [10] = biological target: Beta-lactamase (Pseudomonas aeruginosa, UniProt Q79MP6);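 further: biochemical dose-response test of metallo-beta-lactamase enzyme inhibition, read out by epi-absorbance; purified recombinant IMP-1 metallo-beta-lactamase with nitrocefin as substrate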
Beta-lactamase [11] = biological target: Beta-lactamase (Salmonella choleraesuis (strain SC-B67), UniProt Q5J463)
Bcl-2-like protein 10 = biological target: T4, Bcl-2-like protein 10 (Homo sapiens, UniProt Q9HD36); experiment: displacers of TR3 peptide from Bcl-B, primary screen, selectivity assay for Bfl-1 inhibitor project, biochemical, fluorescence polarization, FITC-TR3 peptide (AID 748);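 further: fluorescence polarization from a fluorescein-labelled TR3 peptide binding purified Bcl-B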
T4 sequence (Q9HD36 whole entry): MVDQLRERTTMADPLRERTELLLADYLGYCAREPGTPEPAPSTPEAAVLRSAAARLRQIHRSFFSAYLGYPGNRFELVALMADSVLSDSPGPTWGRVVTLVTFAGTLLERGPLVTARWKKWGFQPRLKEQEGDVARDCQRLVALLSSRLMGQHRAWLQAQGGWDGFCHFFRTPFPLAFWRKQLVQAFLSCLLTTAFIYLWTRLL

[12] = biological target: Induced myeloid leukemia cell differentiation protein Mcl-1 (Homo sapiens, UniProt Q07820); assay type: functional
Nonstructural protein 1 = Nonstructural protein 1 (Influenza A virus, UniProt Q194T2); assay type: functional, Influenza A virus (A/California/07/2009(H1N1))
Troponin, cardiac muscle = Troponin, cardiac muscle (Homo sapiens, UniProt P19429+P45379+P63316); experiment: Fluorescence-based biochemical high throughput dose response assay for activators of the calcium sensitivity of cardiac Regulated Thin Filaments (RTF). [Related pubchem assays (depositor defined):AID493008, AID493018, AID504382, AID504383]; assay type: protein-complex assay
[13] = biological target: Melanin-concentrating hormone receptor 1 (Homo sapiens, UniProt Q99705); experiment: Late-stage fluorescence-based counterscreen for antagonists of the G-protein coupled receptor 7 (GPR7): cell-based dose response assay to identify antagonists of the melanin-concentrating hormone receptor 1 (MCHR1). [Related pubchem assays (depositor defined):AID1861, AID1880, AID1952, AID2148, AID2251, AID2257, AID485339]; assay type: functional;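 further: stimulated with 30 nM MCH peptide agonist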
[14] = Luminescence Cell-Based Dose Confirmation HTS to Identify Activators of 5'UTR Stem-Loop Driven Alpha-Synuclein mRNA Translation in H4 Neuroglioblastoma Cells. [Related pubchem assays: 1829 (Project Summary), 1814 (Primary HTS)]; assay type: functional
[15] = Luminescence Cell-Based Dose Response HTS to Identify Activators of Luciferase Translation or Activity in H4 […] Cells. [Related pubchem assays: 1829 (Project Summary), 1814 (Primary HTS)]; assay type: functional
H4 = experiment: Luminescence Cell-Based Dose Response HTS to Identify Activators of 5'UTR Stem-Loop Driven Prion Protein mRNA Translation in H4 Neuroglioblastoma Cells. [Related pubchem assays: 1829 (Project Summary), 1814 (Primary HTS)]; assay type: functional; details: Homo sapiens
[16] = biological target: T5, Voltage-gated N-type calcium channel alpha-1B subunit/Amyloid beta A4 precursor protein-binding family A member 1 (Homo sapiens, UniProt Q00975+Q02410); assay type: protein assay
Large T antigen = Large T antigen (Simian virus 40, UniProt P03070); assay type: functional, Betapolyomavirus macacae;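 further: Confirmatory-stage PubChem screen for compounds that inhibit SV40 T antigen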
[17] = biological target: T5, Voltage-gated N-type calcium channel alpha-1B subunit/Amyloid beta A4 precursor protein-binding family A member 1; assay type: protein assay; remark: listed apart in the source
[18] = biological target: DNA dC->dU-editing enzyme APOBEC-3A (Homo sapiens, UniProt P31941); experiment: APOBEC3A DNA deaminase inhibitors, dose response, biochemical (AID 504722); assay type: functional
[19] = biological target: DNA dC->dU-editing enzyme APOBEC-3G (Homo sapiens, UniProt Q9HC16); experiment: Dose Response confirmation of small molecule APOBEC3G DNA Deaminase Inhibitors via a fluorescence-based single-stranded DNA deaminase assay. [Related pubchem assays (depositor defined):AID493012, AID493028]; assay type: functional
Protein Tat = biological target: T6, Protein Tat (Human immunodeficiency virus type 1 group M subtype B (isolate HXB2)(HIV-1), UniProt P04608); assay type: functional;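 further: tat binding to TAR RNA read out by fluorescence polarization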
T6 sequence (P04608 whole entry): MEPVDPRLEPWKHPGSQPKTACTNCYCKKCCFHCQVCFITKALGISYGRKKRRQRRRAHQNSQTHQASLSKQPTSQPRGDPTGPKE

[20] = inhibitors of Vif binding to APOBEC3G peptide, primary screen, biochemical, TR-FRET, GST-Vif 1-94, biotin-A3G peptide, dose response retest (AID 1117319); assay type: functional;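 further: TR-FRET signal of purified GST-Vif binding a biotinylated A3G peptide; inhibitors lower the FRET signal by blocking Vif and A3G binding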
Prothrombin = Prothrombin (Homo sapiens, UniProt P00734); experiment: Thrombin 1536 HTS Dose Response Confirmation. [Related pubchem assays: 1046 (Thrombin 1536 HTS; hits were confirmed in this assay)]; assay type: functional
[21] = inhibitors of firefly luciferase expression or activity, dose response, H4 neuroglioma cells, luminescence (AID 1990); assay type: functional, cell-based
[22] = luciferase reporter signal reduction – luminescence, H4-C neuroglioblastoma cells, dose response (AID 2458); assay type: functional, cell-based;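 further: H4 neuroglioblastoma cells stably carrying a luciferase reporter gene fusion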
BJ [23] = experiment: cytotoxicity toward BJ-TERT fibroblasts, dose response, cell-based, RAS-independent, luminescence (AID 1933); assay type: functional; details: Homo sapiens
cells [24] = assay type: functional, cell-based
[25] = inhibitors of SNCA 5'UTR-driven reporter translation, confirmation, H4 neuroglioma cells, luminescence (AID 1988); assay type: functional, cell-based
BJ [26] = experiment: cells; assay type: functional, cell-based; details: Homo sapiens
BJ [27] = experiment: cytotoxicity toward BJ-TERT-LT-ST fibroblasts, dose response, cell-based, RAS-independent, luminescence (AID 1935); assay type: functional; details: Homo sapiens;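 further: BJ fibroblasts immortalized with TERT plus LT and ST oncogenes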
[28] = cytotoxicity toward DRD oncogenic fibroblasts, dose response, cell-based, non-viral oncogenic, luminescence (AID 1934); assay type: functional; details: Homo sapiens
[29] = inhibitors of SNCA 5'UTR-driven translation, confirmation, luminescence, H4 neuroglioblastoma cells, dose confirmation (AID 2454); assay type: functional, cell-based;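 further: H4 neuroglioblastoma cells carrying an alpha-synuclein 5'UTR luciferase reporter; potency for inhibition of the luciferase signal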
[30] = cytotoxicity in HEK-293T cells, dose response, cytotoxicity control for BCR NF-kB inhibitor project, luminescence, B-cell screen hits (AID 489021); assay type: functional, cell-based;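 further: HEK-293T cells carrying an NF-kB luciferase reporter; cells exposed to compound for about 14 hours before viability readout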

T5 sequence (Q00975 whole entry): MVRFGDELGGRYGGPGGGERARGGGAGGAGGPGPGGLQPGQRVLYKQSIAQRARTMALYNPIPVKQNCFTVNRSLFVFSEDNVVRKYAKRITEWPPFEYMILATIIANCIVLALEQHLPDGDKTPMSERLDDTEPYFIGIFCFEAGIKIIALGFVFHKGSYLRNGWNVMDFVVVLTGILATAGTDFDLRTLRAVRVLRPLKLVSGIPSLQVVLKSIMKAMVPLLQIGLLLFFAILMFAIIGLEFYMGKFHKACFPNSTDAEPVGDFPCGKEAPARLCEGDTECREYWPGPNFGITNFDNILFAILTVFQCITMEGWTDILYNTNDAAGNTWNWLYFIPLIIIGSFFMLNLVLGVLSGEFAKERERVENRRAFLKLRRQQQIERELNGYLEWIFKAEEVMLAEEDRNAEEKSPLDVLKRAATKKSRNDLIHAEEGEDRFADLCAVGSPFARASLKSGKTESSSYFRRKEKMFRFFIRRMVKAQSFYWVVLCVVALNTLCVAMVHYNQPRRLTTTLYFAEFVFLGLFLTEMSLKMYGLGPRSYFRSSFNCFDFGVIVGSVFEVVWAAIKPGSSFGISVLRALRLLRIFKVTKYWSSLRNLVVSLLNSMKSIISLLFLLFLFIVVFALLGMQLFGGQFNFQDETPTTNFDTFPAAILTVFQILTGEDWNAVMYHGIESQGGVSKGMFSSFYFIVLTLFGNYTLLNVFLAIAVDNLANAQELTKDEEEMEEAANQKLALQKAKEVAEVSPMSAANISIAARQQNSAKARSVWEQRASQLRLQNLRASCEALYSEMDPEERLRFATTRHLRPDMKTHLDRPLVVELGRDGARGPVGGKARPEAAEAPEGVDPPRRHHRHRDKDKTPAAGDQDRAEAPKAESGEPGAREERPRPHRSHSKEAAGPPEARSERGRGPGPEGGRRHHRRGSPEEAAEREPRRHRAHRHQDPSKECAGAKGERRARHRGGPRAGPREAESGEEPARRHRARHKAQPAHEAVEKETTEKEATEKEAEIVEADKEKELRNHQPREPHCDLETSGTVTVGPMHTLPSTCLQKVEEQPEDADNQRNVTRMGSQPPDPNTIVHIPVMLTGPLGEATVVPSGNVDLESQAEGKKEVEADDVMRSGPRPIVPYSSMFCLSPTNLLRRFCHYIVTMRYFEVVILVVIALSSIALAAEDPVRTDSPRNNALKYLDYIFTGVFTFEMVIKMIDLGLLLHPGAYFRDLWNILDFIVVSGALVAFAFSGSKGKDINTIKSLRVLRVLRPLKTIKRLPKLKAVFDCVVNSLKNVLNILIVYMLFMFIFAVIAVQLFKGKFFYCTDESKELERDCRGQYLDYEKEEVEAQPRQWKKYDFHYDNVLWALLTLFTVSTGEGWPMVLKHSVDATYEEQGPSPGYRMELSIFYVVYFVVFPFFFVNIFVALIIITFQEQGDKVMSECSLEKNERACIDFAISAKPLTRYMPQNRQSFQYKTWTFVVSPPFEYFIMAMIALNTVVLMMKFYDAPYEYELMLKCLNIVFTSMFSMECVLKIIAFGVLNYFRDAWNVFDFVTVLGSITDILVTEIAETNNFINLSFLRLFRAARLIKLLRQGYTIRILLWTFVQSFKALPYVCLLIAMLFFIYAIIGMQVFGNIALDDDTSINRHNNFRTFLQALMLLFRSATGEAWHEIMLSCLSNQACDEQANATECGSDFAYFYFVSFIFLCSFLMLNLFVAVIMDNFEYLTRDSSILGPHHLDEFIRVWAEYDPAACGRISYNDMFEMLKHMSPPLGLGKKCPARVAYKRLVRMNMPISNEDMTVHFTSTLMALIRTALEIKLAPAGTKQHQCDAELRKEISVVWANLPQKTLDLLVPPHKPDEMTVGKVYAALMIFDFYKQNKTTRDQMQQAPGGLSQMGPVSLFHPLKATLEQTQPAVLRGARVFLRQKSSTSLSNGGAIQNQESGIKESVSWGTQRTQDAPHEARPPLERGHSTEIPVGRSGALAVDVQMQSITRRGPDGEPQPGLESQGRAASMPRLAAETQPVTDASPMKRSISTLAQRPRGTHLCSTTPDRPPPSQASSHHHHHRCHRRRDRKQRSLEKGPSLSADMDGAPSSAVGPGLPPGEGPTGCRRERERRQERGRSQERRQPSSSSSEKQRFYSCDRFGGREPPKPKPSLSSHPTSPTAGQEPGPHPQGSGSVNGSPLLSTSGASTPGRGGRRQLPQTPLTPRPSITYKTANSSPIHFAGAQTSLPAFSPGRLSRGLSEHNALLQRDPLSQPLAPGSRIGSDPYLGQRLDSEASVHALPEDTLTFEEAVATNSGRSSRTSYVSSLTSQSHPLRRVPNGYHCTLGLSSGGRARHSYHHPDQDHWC
T5 sequence (Q02410 whole entry): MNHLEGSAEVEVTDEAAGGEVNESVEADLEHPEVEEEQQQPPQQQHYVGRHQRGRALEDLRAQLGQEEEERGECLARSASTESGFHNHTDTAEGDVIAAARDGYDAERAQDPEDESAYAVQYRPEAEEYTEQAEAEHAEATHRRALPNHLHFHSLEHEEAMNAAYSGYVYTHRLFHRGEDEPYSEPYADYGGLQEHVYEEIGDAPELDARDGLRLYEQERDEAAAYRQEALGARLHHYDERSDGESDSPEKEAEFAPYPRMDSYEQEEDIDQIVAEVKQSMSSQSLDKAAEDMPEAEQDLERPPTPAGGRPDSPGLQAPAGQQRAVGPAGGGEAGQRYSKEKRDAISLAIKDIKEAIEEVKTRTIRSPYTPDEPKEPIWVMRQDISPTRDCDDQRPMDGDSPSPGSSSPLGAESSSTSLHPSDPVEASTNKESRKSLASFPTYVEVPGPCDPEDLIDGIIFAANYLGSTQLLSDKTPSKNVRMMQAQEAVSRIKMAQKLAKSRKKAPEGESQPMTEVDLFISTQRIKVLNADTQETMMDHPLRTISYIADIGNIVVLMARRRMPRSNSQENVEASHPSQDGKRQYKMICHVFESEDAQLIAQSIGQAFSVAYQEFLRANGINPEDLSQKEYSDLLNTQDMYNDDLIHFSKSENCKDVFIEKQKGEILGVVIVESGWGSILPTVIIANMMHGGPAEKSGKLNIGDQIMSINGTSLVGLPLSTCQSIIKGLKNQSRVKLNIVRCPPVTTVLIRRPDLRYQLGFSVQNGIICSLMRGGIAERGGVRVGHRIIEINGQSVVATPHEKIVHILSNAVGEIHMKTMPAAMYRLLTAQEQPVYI
Sequence of Melanin-concentrating hormone receptor 1 (Q99705 whole entry): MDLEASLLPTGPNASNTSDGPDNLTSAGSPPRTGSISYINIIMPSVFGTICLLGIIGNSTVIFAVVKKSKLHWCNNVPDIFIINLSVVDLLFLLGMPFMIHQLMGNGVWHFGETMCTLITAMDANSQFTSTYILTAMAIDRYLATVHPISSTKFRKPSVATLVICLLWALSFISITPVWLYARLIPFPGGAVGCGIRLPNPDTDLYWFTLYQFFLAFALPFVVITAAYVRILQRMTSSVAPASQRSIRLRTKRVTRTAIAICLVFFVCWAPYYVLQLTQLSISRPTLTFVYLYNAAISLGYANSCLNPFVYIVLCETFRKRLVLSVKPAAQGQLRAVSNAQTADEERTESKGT
Sequence of DNA dC->dU-editing enzyme APOBEC-3G (Q9HC16 whole entry): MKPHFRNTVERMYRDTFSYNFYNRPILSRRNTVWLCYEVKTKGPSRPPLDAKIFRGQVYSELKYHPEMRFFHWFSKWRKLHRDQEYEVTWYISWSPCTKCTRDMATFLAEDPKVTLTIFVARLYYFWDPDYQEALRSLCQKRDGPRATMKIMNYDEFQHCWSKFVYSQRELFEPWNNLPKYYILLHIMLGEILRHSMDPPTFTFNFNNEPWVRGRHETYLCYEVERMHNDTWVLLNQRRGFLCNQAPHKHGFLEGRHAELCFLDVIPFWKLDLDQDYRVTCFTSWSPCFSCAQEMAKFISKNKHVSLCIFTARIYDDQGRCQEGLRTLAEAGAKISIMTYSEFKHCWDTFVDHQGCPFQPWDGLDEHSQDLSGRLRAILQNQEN
Sequence of Nonstructural protein 1 (Q194T2 whole entry): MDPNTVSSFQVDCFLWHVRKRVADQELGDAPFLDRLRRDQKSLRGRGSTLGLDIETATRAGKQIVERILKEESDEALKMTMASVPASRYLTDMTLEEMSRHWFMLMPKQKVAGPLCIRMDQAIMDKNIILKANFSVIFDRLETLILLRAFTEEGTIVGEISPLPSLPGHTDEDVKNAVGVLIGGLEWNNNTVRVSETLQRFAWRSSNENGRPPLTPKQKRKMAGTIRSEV
Sequence of G-protein coupled receptor 35 (Q9HC97 whole entry, the tested form may be a part): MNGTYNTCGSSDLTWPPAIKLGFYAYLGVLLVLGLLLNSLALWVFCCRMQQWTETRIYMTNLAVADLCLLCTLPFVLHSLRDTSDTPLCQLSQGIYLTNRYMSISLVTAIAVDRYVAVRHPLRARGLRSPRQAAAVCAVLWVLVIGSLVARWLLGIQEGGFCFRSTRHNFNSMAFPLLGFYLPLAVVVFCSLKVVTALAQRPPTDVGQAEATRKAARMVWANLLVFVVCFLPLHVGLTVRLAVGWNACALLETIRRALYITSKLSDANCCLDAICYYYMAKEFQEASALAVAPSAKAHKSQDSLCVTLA
Sequence of Induced myeloid leukemia cell differentiation protein Mcl-1 (Q07820 whole entry): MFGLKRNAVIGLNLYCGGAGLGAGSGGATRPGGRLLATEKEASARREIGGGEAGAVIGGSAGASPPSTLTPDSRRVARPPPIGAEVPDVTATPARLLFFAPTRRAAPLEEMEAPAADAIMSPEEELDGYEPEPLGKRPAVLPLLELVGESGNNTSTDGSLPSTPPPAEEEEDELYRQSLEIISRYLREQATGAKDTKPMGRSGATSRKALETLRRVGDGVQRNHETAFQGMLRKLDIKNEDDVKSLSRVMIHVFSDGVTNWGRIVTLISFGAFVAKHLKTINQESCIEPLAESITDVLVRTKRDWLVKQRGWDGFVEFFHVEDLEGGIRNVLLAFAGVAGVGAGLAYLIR
Sequence of Beta-lactamase (Pseudomonas aeruginosa, UniProt Q79MP6) (Q79MP6 whole entry): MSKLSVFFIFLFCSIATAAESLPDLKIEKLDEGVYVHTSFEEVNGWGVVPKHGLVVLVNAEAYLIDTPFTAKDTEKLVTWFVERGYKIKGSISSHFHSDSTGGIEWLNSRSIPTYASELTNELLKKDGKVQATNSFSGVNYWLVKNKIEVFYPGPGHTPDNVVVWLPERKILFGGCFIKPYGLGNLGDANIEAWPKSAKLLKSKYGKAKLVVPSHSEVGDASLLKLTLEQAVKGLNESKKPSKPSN

Cc1cc(C)n2nc(SCC(=O)Nc3ccc(F)cc3)nc2n1
IC50 (Coagulation factor XII): > 50 µM (inactive)

COc1cccc(C(=O)Nc2nnc(-c3ccc(F)cc3)o2)c1
EC50 [1]: > 150 µM (inactive) | EC50 [2]: 2.33 µM (active) | EC50 [3]: 1.96 µM (active) | EC50 (Streptococcus): 5.74 µM (active) | CC50 [4]: 31.9 µM (active) | CC50 [5]: 15.8 µM (active) | IC50 (cells [6]): 1.03 µM (active)

CN1C(=O)/C(=C\c2ccc(N(C)C)cc2)OC1=S
IC50 [7]: 1.12 µM (active) | EC50 [8]: > 300 µM (not active) | EC50 [9]: > 300 µM (inconclusive) | IC50 (Beta-lactamase [10]): > 59.6 µM (inactive) | IC50 (Beta-lactamase [11]): > 59.6 µM (inactive)

CN(C)c1ccc(NC(=O)CN2C(=O)CN=C(c3ccccc3)c3cc(Cl)ccc32)cc1
IC50 (Bcl-2-like protein 10): > 100 µM (inactive) | IC50 [12]: 0.856 µM (not active) | IC50 (Nonstructural protein 1): 31 µM (active)

CC(C(=O)c1ccc(Br)cc1)[n+]1cccc2ccccc21 (stereo not drawn)
EC50 (Troponin, cardiac muscle): 15.2 µM (inactive)

CN(C)NC(=O)c1ccc([N+](=O)[O-])s1
EC50 (Troponin, cardiac muscle): > 71.4 µM (inactive)

CCC(C)c1ccc(-n2ncc(Cl)c(Oc3ccc(OC)cc3)c2=O)cc1 (stereo not drawn)
IC50 [13]: 2.2 µM (active)

Cc1ccc(-n2ncc(Cl)c(Oc3ccc(CO)cc3)c2=O)cc1
IC50 [13]: > 20 µM (inactive)

Cc1ccc(N2CSC3=C(C#N)C(c4cccs4)CC(=O)N3C2)cc1 (stereo not drawn)
EC50 [14]: 13.2 µM (active) | EC50 [15]: 17 µM (active) | EC50 (H4): 7.71 µM (active) | IC50 [16]: 3.74 µM (active) | IC50 (Large T antigen): > 100 µM (active) | IC50 [17]: > 50 µM (inactive) | IC50 [18]: > 100 µM (inactive) | IC50 [19]: 5.19 µM (active) | IC50 (Protein Tat): > 100 µM (active) | IC50 [20]: > 100 µM (active)

CC(=O)NNC(=S)NC(=O)c1ccccc1
IC50 (Prothrombin): > 50 µM (inconclusive) | IC50 (Coagulation factor XII): > 50 µM (inactive)

CCOC(=O)Cc1ccc(NC(=O)c2ccc(C(C)(C)C)cc2)cc1
EC50 [21]: < 0.1 µM (active) | EC50 [22]: 0.266 µM (active) | EC50 (BJ [23]): 60.1 µM (active) | EC50 (cells [24]): 0.508 µM (active) | EC50 [25]: < 0.1 µM (active) | EC50 (BJ [26]): > 150 µM (not active) | EC50 (BJ [27]): > 150 µM (inconclusive) | EC50 [28]: 49.5 µM (active) | EC50 [29]: 0.483 µM (active) | IC50 [30]: 42.8 µM (inactive)

COC(=O)c1nnc(NC(C)=O)[nH]1
IC50 (Coagulation factor XII): 12.2 µM (active)
